The target of experiment [1] is hNAMPT protein (Homo sapiens (Human), UniProt P43490). Description: NAMPT enzyme assay (TR-FRET/HTRF, BodiPY ligand, anti 6His-Tb). It is filed as binding. The note with it: for inhibition at 1 µM: NAMPT inhibition at compound concentration 1 μM, read-out: Percent Inhibition; for IC50: NAMPT inhibition, IC50 range class, read-out: IC50. The method in brief:
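Compound or DMSO was incubated for 1 h at room temperature, protected from light, with BodiPY ligand and hNAMPT labelled by terbium anti-6His antibody. The 520 nm to 486 nm emission ratio after 320 nm excitation gave inhibition versus vehicle, from which concentration-response curves yielded IC50.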
A general note: In TR-FRET formats the signal depends on donor and acceptor labels being close together.

The subject of experiment [2] is PC3 cells. The experiment in a line: PC3 growth inhibition (Cell-titer glo, 72 hours). It is filed as cell-based. The following applies: Homo sapiens, PC-3; compound concentration 1.667 μM; PC3 cells, 72 hours, Cell-titer glo; read-out: Percent Inhibition (PC3 growth inhibition). The essentials: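 Compounds in AIM serum-free medium were applied for 72 h at 37 °C, 5% CO2 to PC3 cells plated overnight from RPMI1640 culture. Luminescence after 10 min CellTiter-Glo, normalised to DMSO, gave % viability at 1 μM or 1.667 μM, or GI50/LD50.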

hNAMPT protein, sequence (P43490 whole entry): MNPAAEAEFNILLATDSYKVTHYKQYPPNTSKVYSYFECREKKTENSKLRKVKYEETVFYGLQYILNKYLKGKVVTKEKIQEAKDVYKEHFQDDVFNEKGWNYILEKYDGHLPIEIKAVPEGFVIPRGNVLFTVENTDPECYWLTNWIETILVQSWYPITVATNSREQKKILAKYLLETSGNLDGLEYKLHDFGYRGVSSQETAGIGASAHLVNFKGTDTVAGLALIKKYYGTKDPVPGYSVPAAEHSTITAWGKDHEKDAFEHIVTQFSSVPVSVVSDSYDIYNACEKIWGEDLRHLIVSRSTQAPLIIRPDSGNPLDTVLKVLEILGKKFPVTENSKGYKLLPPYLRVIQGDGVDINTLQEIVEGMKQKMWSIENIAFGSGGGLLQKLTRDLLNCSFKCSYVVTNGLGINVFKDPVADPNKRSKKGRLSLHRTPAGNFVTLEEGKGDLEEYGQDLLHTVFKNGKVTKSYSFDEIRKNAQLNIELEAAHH

Consider `CN1CCCC(Oc2nc3ccc(C(=O)NCCCc4ncc[nH]4)cc3nc2-c2ccc(F)cc2)C1` (stereo not drawn) [Compound I-423, 3-(4-fluorophenyl)-N-[3-(1H-imidazol-2-yl)propyl]-2-[(1-methylpiperidin-3-yl)oxy]quinoxaline-6-carboxamide], for which, in experiment [1], the inhibition at 1 µM was 88% and the IC50 fell in the range of 100 to 500 nM. Further, the inhibition at 1.667 µM in experiment [2] was 2%.

Consider `CC(C)Oc1nc2ccc(C(=O)NCCc3cncn3C)cc2nc1-c1ccc(F)cc1` [Compound I-424, 3-(4-fluorophenyl)-2-isopropoxy-N-[2-(1-methyl-1H-imidazol-5-yl)ethyl]quinoxaline-6-carboxamide], for which, in experiment [1], the inhibition at 1 µM worked out at 76% and the IC50 fell in the range of 100 to 500 nM. In experiment [2], the inhibition at 1.667 µM is 1%.

For `C#Cc1cccc(-c2nc3cc(C(=O)NCCCc4ncc[nH]4)ccc3nc2-c2ccc(F)cc2)c1` [Compound I-425, 3-(3-ethynylphenyl)-2-(4-fluorophenyl)-N-[3-(1H-imidazol-2-yl)propyl]quinoxaline-6-carboxamide], in experiment [1], the inhibition at 1 µM is 87% and the IC50 lay within 100 to 500 nM. The inhibition at 1.667 µM in experiment [2] worked out at 3%.

Take `COc1cc(-c2nc3cc(C(=O)NCc4ccc5nccn5c4)ccc3nc2OC(C)C)ccc1F` [Compound I-426, 3-(4-fluoro-3-methoxyphenyl)-N-(imidazo[1,2-a]pyridin-6-ylmethyl)-2-isopropoxyquinoxaline-6-carboxamide]: in experiment [1], the inhibition at 1 µM was found to be 99% and the IC50 was less than 100 nM. Moreover, in experiment [2], the inhibition at 1.667 µM worked out at 0%.

For `COC1CC(Oc2nc3ccc(C(=O)NCCCc4ncc[nH]4)cc3nc2-c2ccc(F)cc2)C1` (stereo not drawn) [Compound I-427, 3-(4-fluorophenyl)-N-[3-(1H-imidazol-2-yl)propyl]-2-[(3-methoxycyclobutyl)oxy]quinoxaline-6-carboxamide], in experiment [1], the inhibition at 1 µM was found to be 99% and the IC50 is less than 100 nM. Further, the inhibition at 1.667 µM in experiment [2] came out at 2%.

Turning to `Cc1cc(C)n(-c2nc3ccc(C(=O)NCCCc4ncc[nH]4)cc3nc2-c2ccc(F)cc2)n1` [Compound I-428, 2-(3,5-dimethyl-1H-pyrazol-1-yl)-3-(4-fluorophenyl)-N-[3-(1H-imidazol-2-yl)propyl]quinoxaline-6-carboxamide], in experiment [1], the inhibition at 1 µM came to 71% and the IC50 fell in the range of 100 to 500 nM. The inhibition at 1.667 µM in experiment [2] was 2%.

With `O=C(NCCCc1ncc[nH]1)c1ccc2nc(-c3ccc(F)cc3)c(-c3cn[nH]c3)nc2c1` [Compound I-429, 2-(4-fluorophenyl)-N-[3-(1H-imidazol-2-yl)propyl]-3-(1H-pyrazol-4-yl)quinoxaline-6-carboxamide], in experiment [1], the inhibition at 1 µM was 90% and the IC50 was in the range of 100 to 500 nM. Also, in experiment [2], the inhibition at 1.667 µM stood at 76%.

On to `O=C(NCCCc1ncc[nH]1)c1ccc2nc(OC3CCCNC3)c(-c3ccc(F)cc3)nc2c1` (stereo not drawn) [Compound I-430, 3-(4-fluorophenyl)-N-[3-(1H-imidazol-2-yl)propyl]-2-(piperidin-3-yloxy)quinoxaline-6-carboxamide], for which, in experiment [1], the inhibition at 1 µM came to 98% and the IC50 was less than 100 nM. In experiment [2], the inhibition at 1.667 µM stood at 3%.

For the compound `O=C(NCCCc1ncc[nH]1)c1ccc2nc(-c3ccc(F)cc3)c(-c3ccc(Cl)c(F)c3)nc2c1` [Compound I-431, 3-(4-chloro-3-fluorophenyl)-2-(4-fluorophenyl)-N-[3-(1H-imidazol-2-yl)propyl]quinoxaline-6-carboxamide], in experiment [1], the inhibition at 1 µM was found to be 90% and the IC50 lay in the range of 100 to 500 nM. Besides, the inhibition at 1.667 µM in experiment [2] was determined as 2%.

Turning to `O=C(NCCCc1ncc[nH]1)c1ccc2nc(-c3ccc(F)cc3)c(-c3cc(OC(F)(F)F)ccc3Cl)nc2c1` [Compound I-432, 3-[2-chloro-5-(trifluoromethoxy)phenyl]-2-(4-fluorophenyl)-N-[3-(1H-imidazol-2-yl)propyl]quinoxaline-6-carboxamide], in experiment [1], the inhibition at 1 µM was 79% and the IC50 lay in the range of 100 to 500 nM. The inhibition at 1.667 µM in experiment [2] was determined as 2%.

Broadly, the inhibition is the change of the read-out against control, counted positive when it falls. In general, IC50 refers to the concentration that inhibits the measured activity by half.

For the origin of these results see patent US10144742B2 (Millennium Pharmaceuticals, Inc., priority 2014, dated 2018).
